# Results published in PubChem BioAssay AID2060907 (Molecular Pharmacology Branch, DTP, NCI, 2025).
# Tested on: 388556-164-R-J1-PDC complex spheroid viability
# Assay: Anticancer human tumor 388556-164-R-J1-PDC patient-derived colon adenocarcinoma cell line growth inhibition [RAS]
# Settings: for IC50: curve of first compound; for viability, T/C: stronger effect = lower value
# Method in brief: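 Agents were tested in combination matrices in half-log decrements from a top concentration at or near clinical Cmax (10 microM if undetermined). Targets were multi-cell spheroids of tumour lines plus HUVEC and MSC stromal cells.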
# [1] = second compound 0.000949 µM, first compound 0.0316 µM
# [2] = second compound 0.000949 µM, first compound 0.1 µM
# [3] = second compound 0.000949 µM, first compound 0.316 µM
# [4] = second compound 0.000949 µM, first compound 1 µM
# [5] = second compound 0.003 µM, first compound 0.0316 µM
# [6] = second compound 0.003 µM, first compound 0.1 µM
# [7] = second compound 0.003 µM, first compound 0.316 µM
# [8] = second compound 0.003 µM, first compound 1 µM
# [9] = second compound 0.00949 µM, first compound 0.0316 µM
# [10] = second compound 0.00949 µM, first compound 0.1 µM
# [11] = second compound 0.00949 µM, first compound 0.316 µM
# [12] = second compound 0.00949 µM, first compound 1 µM
# [13] = second compound 0.03 µM, first compound 0.0316 µM
# [14] = second compound 0.03 µM, first compound 0.1 µM
# [15] = second compound 0.03 µM, first compound 0.316 µM
# [16] = second compound 0.03 µM, first compound 1 µM
# [17] = second compound 0.0949 µM, first compound 0.0316 µM
# [18] = second compound 0.0949 µM, first compound 0.1 µM
# [19] = second compound 0.0949 µM, first compound 0.316 µM
# [20] = second compound 0.0949 µM, first compound 1 µM
# [21] = second compound 0.3 µM, first compound 0.0316 µM
# [22] = second compound 0.3 µM, first compound 0.1 µM
# [23] = second compound 0.3 µM, first compound 0.316 µM
# [24] = second compound 0.3 µM, first compound 1 µM
# 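Note: spheroids exposed to compound for 7 days before readout.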
# 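Throughout, for viability, T/C: 100% = DMSO vehicle control luminescence.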
structure (smiles),measurement,setting,value
Nc1ccn(C2OC(CO)C(O)C2(F)F)c(=O)n1 (centres undefined) + CCn1c(-c2cccnc2C(C)OC)c2c3cc(ccc31)N1CCOC(CC(NC(=O)C(C(C)C)N(C)C(=O)C3(F)CCN(C(=O)C#CC(C)(C)N(C)C)CC3)C(=O)N3CCCC(N3)C(=O)OCC(C)(C)C2)C1,IC50,second compound 0.000949 µM,> 1000 nM
same,IC50,second compound 0.003 µM,> 1000 nM
same,IC50,second compound 0.00949 µM,> 1000 nM
same,IC50,second compound 0.03 µM,> 1000 nM
same,IC50,second compound 0.0949 µM,> 1000 nM
same,IC50,second compound 0.3 µM,> 1000 nM
same,"viability, T/C","second compound 0.000949 µM, first compound 0.00316 µM",96%
same,"viability, T/C","second compound 0.000949 µM, first compound 0.01 µM",85.5%
same,"viability, T/C",[1],77.4%
same,"viability, T/C",[2],71.8%
same,"viability, T/C",[3],71.6%
same,"viability, T/C",[4],64.1%
same,"viability, T/C","second compound 0.003 µM, first compound 0.00316 µM",102%
same,"viability, T/C","second compound 0.003 µM, first compound 0.01 µM",90.5%
same,"viability, T/C",[5],76.8%
same,"viability, T/C",[6],72.1%
same,"viability, T/C",[7],72.4%
same,"viability, T/C",[8],65.8%
same,"viability, T/C","second compound 0.00949 µM, first compound 0.00316 µM",99.1%
same,"viability, T/C","second compound 0.00949 µM, first compound 0.01 µM",91.8%
same,"viability, T/C",[9],78.6%
same,"viability, T/C",[10],69.4%
same,"viability, T/C",[11],70%
same,"viability, T/C",[12],64.5%
same,"viability, T/C","second compound 0.03 µM, first compound 0.00316 µM",98.4%
same,"viability, T/C","second compound 0.03 µM, first compound 0.01 µM",92.7%
same,"viability, T/C",[13],79%
same,"viability, T/C",[14],67.5%
same,"viability, T/C",[15],70.6%
same,"viability, T/C",[16],61.7%
same,"viability, T/C","second compound 0.0949 µM, first compound 0.00316 µM",90.6%
same,"viability, T/C","second compound 0.0949 µM, first compound 0.01 µM",86.3%
same,"viability, T/C",[17],74.7%
same,"viability, T/C",[18],67.6%
same,"viability, T/C",[19],68.1%
same,"viability, T/C",[20],62.2%
same,"viability, T/C","second compound 0.3 µM, first compound 0.00316 µM",81.7%
same,"viability, T/C","second compound 0.3 µM, first compound 0.01 µM",78%
same,"viability, T/C",[21],69.8%
same,"viability, T/C",[22],68.4%
same,"viability, T/C",[23],67.2%
same,"viability, T/C",[24],59.5%
CC(Nc1ccc2c(c1)OCCn1cc(N3C(=O)OCC3C(F)F)nc1-2)C(N)=O (centres undefined) + CCn1c(-c2cc(N3CCN(C)CC3)cnc2C(C)OC)c2c3cc(ccc31)-c1csc(n1)CC(NC(=O)C1CC1C)C(=O)N1CCCC(N1)C(=O)OCC(C)(C)C2,IC50,second compound 0.000949 µM,> 10000 nM
same,IC50,second compound 0.003 µM,3450 nM
same,IC50,second compound 0.00949 µM,854 nM
same,IC50,second compound 0.03 µM,98.5 nM
same,IC50,second compound 0.0949 µM,< 31.6 nM
same,IC50,second compound 0.3 µM,< 31.6 nM
same,"viability, T/C",[1],89.5%
same,"viability, T/C",[2],82.3%
same,"viability, T/C",[3],71.9%
same,"viability, T/C",[4],66.6%
same,"viability, T/C","second compound 0.000949 µM, first compound 3.16 µM",59.6%
same,"viability, T/C","second compound 0.000949 µM, first compound 10 µM",49.6%
same,"viability, T/C",[5],82.4%
same,"viability, T/C",[6],79.2%
same,"viability, T/C",[7],63.4%
same,"viability, T/C",[8],62.6%
same,"viability, T/C","second compound 0.003 µM, first compound 3.16 µM",51.6%
same,"viability, T/C","second compound 0.003 µM, first compound 10 µM",40.2%
same,"viability, T/C",[9],79.3%
same,"viability, T/C",[10],75%
same,"viability, T/C",[11],48.5%
same,"viability, T/C",[12],52.4%
same,"viability, T/C","second compound 0.00949 µM, first compound 3.16 µM",43.8%
same,"viability, T/C","second compound 0.00949 µM, first compound 10 µM",31.9%
same,"viability, T/C",[13],55.8%
same,"viability, T/C",[14],48.4%
same,"viability, T/C",[15],42%
same,"viability, T/C",[16],42.7%
same,"viability, T/C","second compound 0.03 µM, first compound 3.16 µM",34.7%
same,"viability, T/C","second compound 0.03 µM, first compound 10 µM",25.7%
same,"viability, T/C",[17],42.3%
same,"viability, T/C",[18],38%
same,"viability, T/C",[19],31.6%
same,"viability, T/C",[20],27.9%
same,"viability, T/C","second compound 0.0949 µM, first compound 3.16 µM",22.7%
same,"viability, T/C","second compound 0.0949 µM, first compound 10 µM",16.3%
same,"viability, T/C",[21],28.2%
same,"viability, T/C",[22],26.2%
same,"viability, T/C",[23],22.9%
same,"viability, T/C",[24],21%
same,"viability, T/C","second compound 0.3 µM, first compound 3.16 µM",18.6%
same,"viability, T/C","second compound 0.3 µM, first compound 10 µM",14.2%
